Source: patent publication US10526327B2, “Histone demethylase inhibitors” (CELGENE QUANTICEL RESEARCH, INC., priority 2013, dated 2020)

Biological target: T1, Jarid1A (Homo sapiens, UniProt P29375)
T1 construct: purchased BPS Bioscience 50110
T1 sequence (P29375 1-1090): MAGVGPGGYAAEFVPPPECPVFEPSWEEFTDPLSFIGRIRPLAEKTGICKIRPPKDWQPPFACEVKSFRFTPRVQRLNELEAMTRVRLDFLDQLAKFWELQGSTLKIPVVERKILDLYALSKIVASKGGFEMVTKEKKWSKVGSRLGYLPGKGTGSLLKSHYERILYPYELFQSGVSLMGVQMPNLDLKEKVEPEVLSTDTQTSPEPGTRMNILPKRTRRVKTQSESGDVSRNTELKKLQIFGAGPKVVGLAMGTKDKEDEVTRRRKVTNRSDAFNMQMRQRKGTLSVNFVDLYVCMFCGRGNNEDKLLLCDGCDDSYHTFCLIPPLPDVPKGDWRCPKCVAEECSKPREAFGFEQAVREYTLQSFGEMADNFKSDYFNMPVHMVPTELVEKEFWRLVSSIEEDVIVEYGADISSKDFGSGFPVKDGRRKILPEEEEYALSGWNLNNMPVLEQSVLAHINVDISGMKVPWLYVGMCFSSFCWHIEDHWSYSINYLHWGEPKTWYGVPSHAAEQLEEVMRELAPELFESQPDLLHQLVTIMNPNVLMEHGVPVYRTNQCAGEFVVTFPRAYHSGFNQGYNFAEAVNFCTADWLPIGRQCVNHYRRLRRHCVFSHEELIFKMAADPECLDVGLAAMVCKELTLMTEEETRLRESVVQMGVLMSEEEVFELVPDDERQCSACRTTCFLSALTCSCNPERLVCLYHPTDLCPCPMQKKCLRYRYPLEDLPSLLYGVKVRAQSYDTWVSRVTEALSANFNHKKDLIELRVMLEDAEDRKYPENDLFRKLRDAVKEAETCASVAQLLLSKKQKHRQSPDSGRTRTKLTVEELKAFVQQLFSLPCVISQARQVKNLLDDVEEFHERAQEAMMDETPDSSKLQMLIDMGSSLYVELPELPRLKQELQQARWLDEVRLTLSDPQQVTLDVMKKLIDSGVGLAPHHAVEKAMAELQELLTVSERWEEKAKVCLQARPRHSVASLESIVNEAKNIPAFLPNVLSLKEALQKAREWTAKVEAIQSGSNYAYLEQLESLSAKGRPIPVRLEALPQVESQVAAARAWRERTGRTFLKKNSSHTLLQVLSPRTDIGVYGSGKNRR
Assay: Jarid1A in vitro enzyme inhibition assay (TR-FRET)
Assay type: biochemical
Excerpt: This assay determines the ability of a test compound to inhibit Jarid1A, Jarid1B, and JMJD2C demethylase activity. Baculovirus expressed Jarid1A (GenBank Accession #NM_001042603, AA1-1090) was purchased from BPS Bioscience (Cat#50110). Baculovirus expressed Jarid1B (GenBank Accession #NM_006618, AA 2-751) was purchased from BPS Bioscience (Cat #50121) or custom made by MolecularThroughput. Baculovirus expressed JMJD2C (GenBank Accession #BC143571, AA 2-372) was purchased from BPS Bioscience (Cat#50105).
The enzymatic assay of Jarid1A activity is based upon Time Resolved-Fluorescence Resonance Energy Transfer (TR-FRET) detection. The ability of test compounds to inhibit the activity of Jarid1A was determined in 384-well plate format under the following reaction conditions: 1 nM Jarid1A, 300 nM H3K4me3-biotin labeled peptide (Anaspec cat #64357), 2 μM alpha-ketoglutaric acid in assay buffer of 50 mM HEPES, pH7.3, 0.005% Brij35, 0.5 mM TCEP, 0.2 mg/ml BSA, 50 μM sodium L-ascorbate, and 2 μM ammonium iron(II) sulfate. Reaction product was determined quantitatively by TR-FRET after the addition of detection reagent Phycolink Streptavidin-allophycocyanin (Prozyme) and Europium-anti-mono-or di-methylated histone H3 lysine 4 (H3K4me1-2) antibody (PerkinElmer) in the presence of 5 mM EDTA in LANCE detection buffer (PerkinElmer) at a final concentration of 25 nM and 1 nM, respectively.
The assay reaction was initiated by the following: 2 μl of the mixture of 900 nM H3K4me3-biotin labeled peptide and 6 μM alpha-ketoglutaric acid with 2 μl of 11-point serial diluted inhibitor in 3% DMSO was added to each well of plate, followed by the addition of 2 μl of 3 nM Jarid1A to initiate the reaction. The reaction mixture was incubated at room temperature for 30 minutes, and terminated by the addition of 6 μl of 5 mM EDTA in LANCE detection buffer containing 50 nM Phycolink Streptavidin-allophycocyanin and 2 nM Europium-anti-H3K4me1-2 antibody. Plates were read by EnVisionMultilabel Reader in TR-FRET mode (excitation at 320 nm, emission at 615 nm and 665 nm) after 1 hour incubation at room temperature. A ratio was calculated (665/615) for each well and fitted to determine inhibition constant (IC50).

`Oc1nc(Oc2cnn(Cc3ccccc3)c2)nc2cnccc12` [Example 66, 2-[(1-benzyl-1H-pyrazol-4-yl)oxy]pyrido[3,4-d]pyrimidin-4-ol] was tested, and the IC50 was ≤ 0.1 µM.

With `Oc1nc(Oc2cnn(C3CCOCC3)c2)nc2cnccc12` [Example 67, 2-{[1-(tetrahydro-2H-pyran-4-yl)-1H-pyrazol-4-yl]oxy}pyrido[3,4-d]pyrimidin-4-ol] the IC50 was ≤ 0.1 µM.

In the case of `COc1nc(O)c2ccnc(-c3cn(C)cn3)c2n1` [Example 68, 2-methoxy-8-(1-methyl-1H-imidazol-4-yl)pyrido[3,4-d]pyrimidin-4-ol], the IC50 is reported as ≤ 0.1 µM.

With `CCOc1nc(O)c2ccnc(-c3cn(C)cn3)c2n1` [Example 69, 2-ethoxy-8-(1-methyl-1H-imidazol-4-yl)pyrido[3,4-d]pyrimidin-4-ol] the IC50 was ≤ 0.1 µM.

With `Cn1cnc(-c2nccc3c(O)nc(OCC(F)(F)F)nc23)c1` [Example 70, 8-(1-methyl-1H-imidazol-4-yl)-2-(2,2,2-trifluoroethoxy)pyrido[3,4-d]pyrimidin-4-ol] the IC50 was ≤ 0.1 µM.

`Cn1cnc(-c2nccc3c(O)nc(OCc4ccc(F)cc4)nc23)c1` [Example 71, 2-[(4-fluorobenzyl)oxy]-8-(1-methyl-1H-imidazol-4-yl)pyrido[3,4-d]pyrimidin-4-ol] was tested, and the IC50 was ≤ 0.1 µM.

For `Cn1cnc(-c2nccc3c(O)nc(OCC4CC4)nc23)c1` [Example 72, 2-(cyclopropylmethoxy)-8-(1-methylimidazol-4-yl)pyrido[3,4-d]pyrimidin-4-ol], the IC50 was ≤ 0.1 µM.

With `Cn1cnc(-c2nccc3c(O)nc(OCCCC(F)(F)F)nc23)c1` [Example 74, 8-(1-methylimidazol-4-yl)-2-(4,4,4-trifluorobutoxy)pyrido[3,4-d]pyrimidin-4-ol] the IC50 was ≤ 0.1 µM.

In the case of `Cn1cnc(-c2nccc3c(O)nc(OCCO)nc23)c1` [Example 75, 2-(2-hydroxyethoxy)-8-(1-methylimidazol-4-yl)pyrido[3,4-d]pyrimidin-4-ol], the IC50 is reported as ≤ 0.1 µM.

With `CN(C)CCOc1nc(O)c2ccnc(-c3cn(C)cn3)c2n1` [Example 76, 2-[2-(dimethylamino)ethoxy]-8-(1-methylimidazol-4-yl)pyrido[3,4-d]pyrimidin-4-ol] the IC50 was 0.1 to 1 µM.

With `Cn1cnc(-c2nccc3c(O)nc(OCC(F)F)nc23)c1` [Example 77, 2-(2,2-difluoroethoxy)-8-(1-methylimidazol-4-yl)pyrido[3,4-d]pyrimidin-4-ol] the IC50 was ≤ 0.1 µM.

In the case of `Cn1cnc(-c2nccc3c(O)nc(OCCC4CC4)nc23)c1` [Example 78, 2-(2-cyclopropylethoxy)-8-(1-methylimidazol-4-yl)pyrido[3,4-d]pyrimidin-4-ol], the IC50 is reported as ≤ 0.1 µM.

In the case of `Cn1cnc(-c2nccc3c(O)nc(Oc4cnn(Cc5ccccc5)c4)nc23)c1` [Example 79, 2-(1-benzylpyrazol-4-yl)oxy-8-(1-methylimidazol-4-yl)pyrido[3,4-d]pyrimidin-4-ol], the IC50 is reported as ≤ 0.1 µM.

In the case of `CC(C)CCn1cc(Oc2nc(O)c3ccnc(-c4cn(C)cn4)c3n2)cn1` [Example 80, 2-[1-(3-methylbutyl)pyrazol-4-yl]oxy-8-(1-methylimidazol-4-yl)pyrido[3,4-d]pyrimidin-4-ol], the IC50 is reported as ≤ 0.1 µM.

For `Cn1cnc(-c2nccc3c(O)nc(Oc4ccc(F)c(F)c4)nc23)c1` [Example 81, 2-(3,4-difluorophenoxy)-8-(1-methylimidazol-4-yl)pyrido[3,4-d]pyrimidin-4-ol], the IC50 was ≤ 0.1 µM.

`COCCOc1ccc(Oc2nc(O)c3ccnc(-c4cn(C)cn4)c3n2)cc1` [Example 82, 2-[4-(2-methoxyethoxy)phenoxy]-8-(1-methylimidazol-4-yl)pyrido[3,4-d]pyrimidin-4-ol] was tested, and the IC50 was ≤ 0.1 µM.

For `Cn1cnc(-c2nccc3c(O)nc(Oc4ccc5cnn(C)c5c4)nc23)c1` [Example 83, 8-(1-methylimidazol-4-yl)-2-(1-methylindazol-6-yl)oxypyrido[3,4-d]pyrimidin-4-ol], the IC50 was ≤ 0.1 µM.

In the case of `CCn1ncc2ccc(Oc3nc(O)c4ccnc(-c5cn(C)cn5)c4n3)cc21` [Example 84, 2-(1-ethylindazol-6-yl)oxy-8-(1-methylimidazol-4-yl)pyrido[3,4-d]pyrimidin-4-ol], the IC50 is reported as ≤ 0.1 µM.
